Consider ten compounds from ChEMBL document CHEMBL1157021, “Synthesis, structure and affinity of novel 3-alkoxy-1,2-dihydro-3H-1,4-benzodiazepin-2-ones for CNS central and peripheral benzodiazepine receptors” (Eur J Med Chem, 2010).

A short description of assay [1]: Displacement of [3H]flumazenil from central benzodiazepine receptor in Wistar rat brain synaptosomal membrane after 60 mins by scintillation counting.
Another assay deals with Translocator protein (Rattus norvegicus, UniProt P16257). Put plainly: Displacement of [3H]PK11195 from peripheral benzodiazepine receptor in Wistar rat brain synaptosomal membrane after 120 mins by scintillation counting.
Sequence of Translocator protein (P16257 whole entry, looked up): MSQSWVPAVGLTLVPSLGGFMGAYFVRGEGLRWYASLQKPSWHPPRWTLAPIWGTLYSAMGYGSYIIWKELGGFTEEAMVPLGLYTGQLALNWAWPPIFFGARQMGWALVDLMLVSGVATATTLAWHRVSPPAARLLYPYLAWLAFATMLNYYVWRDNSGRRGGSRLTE
The nature of assay [2]: Binding affinity to central benzodiazepine receptor.

Each structure is given as a SMILES string.

As to `COCCO[C@H]1N=C(c2ccccc2)c2cc(Br)ccc2NC1=O`, the IC50 in assay [1] was 4930 nM; on Translocator protein it was above 1000 nM. Take `O=C1Nc2ccc(Br)cc2C(c2ccccc2)=NC1OCCO` (centres undefined): the IC50 in assay [1] is 540 nM; on Translocator protein, above 1000 nM. The matching figures for `COCCO[C@@H]1N=C(c2ccccc2)c2cc(Br)ccc2NC1=O`: 245 nM and above 1000 nM.

Take `CCOC1N=C(c2ccccc2Cl)c2cc(Br)ccc2NC1=O` (racemic): the IC50 in assay [1] is 52 nM; at Translocator protein, above 1000 nM.

`CCOC1N=C(c2ccccc2)c2cc(C)ccc2NC1=O` (racemic): the IC50 (in assay [1]; at Translocator protein) was above 1000 nM each time.

Regarding `O=C1Nc2ccc(Br)cc2C(c2ccccc2Cl)=NC1OCCO` (racemic), the IC50 in assay [1] is 48 nM; at Translocator protein it was above 1000 nM. The matching figures for `CCOC1N=C(c2ccccc2)c2cc(Br)ccc2NC1=O` (racemic): above 1000 nM and above 1000 nM.

Consider `COCCOC1N=C(c2ccccc2Cl)c2cc(Br)ccc2NC1=O` (racemic), for which the IC50 is 9 nM in assay [1] and above 1000 nM on Translocator protein.

On to `COCCOC1N=C(c2ccccc2)c2cc(Br)ccc2NC1=O` (racemic), for which the IC50 in assay [1] is 510 nM; on Translocator protein it was above 1000 nM. As for `O=C(O)CCC(=O)OC1N=C(c2ccccc2Cl)c2cc(Br)ccc2NC1=O` (centres undefined) [CINAZEPAM], the Ki in assay [2] was 72 nM.
